Assay results published in patent US20110038885A1, “CHEMOKINE ANALOGS” (priority 2007, published 2011).
pEC50: −log10 of the molar value. Numbered stars: 1 amine (or outer) side, 2 acyl side, 3 side chain; on linkers, the order of the positions; unused ones are H or OH. Bridge positions count the residues as written; N and C are the ends. Square brackets hold non-standard residues; d marks the D form. Peptide text beside a SMILES is read from it. * marks the point of attachment. Hydrocinnamoyl(4-Me) = Cc1ccc(CCC(=O)*)cc1; NH(CH2)8CO = O=C(CCCCCCCCN[*:1])[*:2]; X3 = O=C(/C=C/c1ccc(Cl)cc1)*; Lauroyl = CCCCCCCCCCCC(=O)*; Decanoyl = CCCCCCCCCC(=O)*; Octanoyl = CCCCCCCC(=O)*; X5 = O=C(/C=C/c1ccccc1)*; Hexanoyl = CCCCCC(=O)*; Aoc = NCCCCCCCC(=O)O; Ahp = NCCCCCCC(=O)O; Ahx = NCCCCCC(=O)O; Ava = NCCCCC(=O)O; βAla = NCCC(=O)O

Test system: MCP-1
Assay: In vitro chemotaxis (trans-well migration) v MCP-1
Type: cell-based, human
Protocol: To determine whether an agent inhibits a chemokine-induced activity, such as macrophage recruitment, varying amounts of the agent are mixed with cells in the presence of a known chemoattractant. For example, a range of known concentrations of an agent, e.g., a chemokine peptide, is incubated with a defined number (e.g., 10^4-10^6) of human THP-1 monocyte cells in individual wells of the top compartment of a trans-well plate. Chemokine, at a concentration known to cause significant migration of THP-1 cells in the trans-well migration assay, is placed in the lower compartment of a trans-well plate. Cells are then incubated at 37° C. for a period sufficient to allow migration, e.g., 4 hours. After incubation, the cells are gently removed from the top of the filter with a pipette, 20 μl of 20 mM EDTA in simple PBS is added into each top well, and incubated for 20 minutes at 4° C. The filter is carefully flushed with media using a gentle flow, and removed. A standard curve consisting of a two-fold dilution series of THP-1 cells (in 29 μl) is placed to accurately quantify the number of cells that have migrated. Migrated cells are stained with 3 μl of MTT stock dye solution which is added directly into each well (5 mg/ml in RPMI-1640 without phenol red) (Sigma Chemical Co., St. Louis, Mo., USA) and incubated at 37° C. for 4 hours. The media is carefully aspirated from each well, and the converted dye is solubilized by 20 μl of DMSO. Absorbance of converted dye is measured at a wavelength of 595 nm using an ELISA plate reader. The number of migrated cells in each well is then determined by interpolation of the standard curve (see also Imai et al., J. Biol. Chem., 272:15036, 1997). Any method suitable for counting cells can be used, for example, counting with a hemocytometer, incubation of the cells with MTT (see above), or FACS analysis. A negative control assay is also performed, using TGFβ or another non-chemokine chemoattractant (e.g., IL1β or TNFα). To assess whether the agent is cytotoxic, the same concentrations of agent are incubated with THP-1 cells. Agents which 1) are not cytotoxic at levels which inhibit migration, 2) are ineffective at inhibiting the negative control-induced migration, and 3) reduce or inhibit chemokine-induced THP-1 migration, are agents which fall within the scope of the invention.

pEC50 | Structure (SMILES)
8.10 | CC[C@H](C)[C@@H]1NC(=O)[C@H](Cc2c[nH]c3ccccc23)NC(=O)[C@H](CCCCN)NC(=O)[C@@H](NC(=O)/C=C/c2ccccc2)CSSC[C@@H](C(N)=O)NC(=O)[C@H](CCC(N)=O)NC1=O [Example 72, trans-Ciimamoyl-c(Cys-Lys-Trp-Ile-Gln-Cys)-NH2] (X5-CKWIQC-NH2; disulfide 1-6)
7.60 | CC[C@H](C)[C@@H]1NC(=O)[C@H](Cc2c[nH]c3ccccc23)NC(=O)[C@H](CCCCN)NC(=O)[C@@H](NC(C)=O)CSSC[C@@H](C(N)=O)NC(=O)[C@@H](CCC(N)=O)NC1=O [Example 75, Ac-c(Cys-Lys-Trp-Ile-D-Gln-Cys)-NH2] (Ac-CKWI[dQ]C-NH2; disulfide 1-6)
7.70 | CC[C@@H](C)[C@H]1NC(=O)[C@H](Cc2c[nH]c3ccccc23)NC(=O)[C@H](CCCCN)NC(=O)[C@@H](NC(C)=O)CSSC[C@@H](C(N)=O)NC(=O)[C@H](CCC(N)=O)NC1=O [Example 76, Ac-c(Cys-Lys-Trp-D-Ile-Gln-Cys)-NH2] (Ac-CKW[dI]QC-NH2; disulfide 1-6)
7.22 | CC[C@H](C)[C@@H]1NC(=O)[C@H](Cc2c[nH]c3ccccc23)NC(=O)[C@H](CCCCN)NC(=O)[C@H](NC(C)=O)CSSC[C@@H](C(N)=O)NC(=O)[C@H](CCC(N)=O)NC1=O [Example 79, Ac-c(D-Cys-Lys-Trp-Ile-Gln-Cys)-NH2] (Ac-[dC]KWIQC-NH2; disulfide 1-6)
8.00 | CC[C@H](C)[C@@H]1NC(=O)[C@H](Cc2c[nH]c3ccccc23)NC(=O)[C@H](CCCCN)NC(=O)[C@@H](NC(=O)CCc2ccc(C)cc2)CSSC[C@@H](C(N)=O)NC(=O)[C@H](CCC(N)=O)NC1=O [Example 80, (Des-amino-4-methyl)Phe-c(Cys-Lys-Trp-Ile-Gln-Cys)-NH2] ({Hydrocinnamoyl(4-Me)}-CKWIQC-NH2; disulfide 1-6)
8.12 | CC[C@H](C)[C@@H]1NC(=O)[C@@H](N)CSSC[C@@H](C(N)=O)NC(=O)[C@H](CCC(N)=O)NC1=O [Example 86, c(Cys-Ile-Gln-Cys)-NH2] (H-CIQC-NH2; disulfide 1-4)
7.70 | CC[C@H](C)[C@@H]1NC(=O)[C@H](Cc2c[nH]c3ccccc23)NC(=O)[C@H](CCCCN)NC(=O)CCCCCCCNC(=O)C[C@@H](C(N)=O)NC(=O)[C@H](CCC(N)=O)NC1=O [Example 95, c(Aoc-Lys-Trp-Ile-Gln-Asp)-NH2] ([Aoc]KWIQD-NH2; lactam N-6)
8.40 | CC[C@H](C)[C@@H]1NC(=O)[C@H](Cc2c[nH]c3ccccc23)NC(=O)[C@H](CCCCN)NC(=O)CCCCCCCNC(=O)CC[C@@H](C(N)=O)NC(=O)[C@H](CCC(N)=O)NC1=O [Example 96, c(Aoc-Lys-Trp-Ile-Gln-Glu)-NH2] ([Aoc]KWIQE-NH2; lactam N-6)
7.82 | CC[C@H](C)[C@@H]1NC(=O)[C@H](Cc2c[nH]c3ccccc23)NC(=O)[C@H](CCCCN)NC(=O)CCCCCCCCNC(=O)C[C@@H](C(N)=O)NC(=O)[C@H](CCC(N)=O)NC1=O [Example 97, c(Anc-Lys-Trp-Ile-Gln-Asp)-NH2] ([NH(CH2)8CO]KWIQD-NH2; lactam N-6)

The remaining lines, values behind:

Structure (SMILES) | pEC50
CC[C@H](C)[C@@H]1NC(=O)[C@H](Cc2c[nH]c3ccccc23)NC(=O)[C@H](CCCCN)NC(=O)[C@@H](NC(=O)/C=C/c2ccc(Cl)cc2)CSSC[C@@H](C(N)=O)NC(=O)[C@H](CCC(N)=O)NC1=O [Example 73, 4-Chlorocinnamoyl-c(Cys-Lys-Trp-Ile-Gln-Cys)-NH2] (X3-CKWIQC-NH2; disulfide 1-6) | 8.00
CC[C@H](C)[C@@H]1NC(=O)[C@H](Cc2c[nH]c3ccccc23)NC(=O)[C@H](CCCCN)NC(=O)[C@@H](NC(C)=O)CSSC[C@H](C(N)=O)NC(=O)[C@H](CCC(N)=O)NC1=O [Example 74, Ac-c(Cys-Lys-Trp-Ile-Gln-D-Cys)-NH2] (Ac-CKWIQ[dC]-NH2; disulfide 1-6) | 8.15
CC[C@H](C)[C@@H]1NC(=O)[C@@H](Cc2c[nH]c3ccccc23)NC(=O)[C@H](CCCCN)NC(=O)[C@@H](NC(C)=O)CSSC[C@@H](C(N)=O)NC(=O)[C@H](CCC(N)=O)NC1=O [Example 77, Ac-c(Cys-Lys-D-Trp-Ile-Gln-Cys)-NH2] (Ac-CK[dW]IQC-NH2; disulfide 1-6) | 7.70
CC[C@H](C)[C@@H]1NC(=O)[C@H](Cc2c[nH]c3ccccc23)NC(=O)[C@@H](CCCCN)NC(=O)[C@@H](NC(C)=O)CSSC[C@@H](C(N)=O)NC(=O)[C@H](CCC(N)=O)NC1=O [Example 78, Ac-c(Cys-D-Lys-Trp-Ile-Gln-Cys)-NH2] (Ac-C[dK]WIQC-NH2; disulfide 1-6) | 7.52
CCCCCC(=O)N[C@H]1CSSC[C@@H](C(N)=O)NC(=O)[C@H](CCC(N)=O)NC(=O)[C@H]([C@@H](C)CC)NC(=O)[C@H](Cc2c[nH]c3ccccc23)NC(=O)[C@H](CCCCN)NC1=O [Example 81, n-Hexanoyl-c(Cys-Lys-Trp-Ile-Gln-Cys)-NH2] (Hexanoyl-CKWIQC-NH2; disulfide 1-6) | 8.30
CCCCCCCC(=O)N[C@H]1CSSC[C@@H](C(N)=O)NC(=O)[C@H](CCC(N)=O)NC(=O)[C@H]([C@@H](C)CC)NC(=O)[C@H](Cc2c[nH]c3ccccc23)NC(=O)[C@H](CCCCN)NC1=O [Example 82, Octanoyl-c(Cys-Lys-Trp-Ile-Gln-Cys)-NH2] (Octanoyl-CKWIQC-NH2; disulfide 1-6) | 7.60
CCCCCCCCCC(=O)N[C@H]1CSSC[C@@H](C(N)=O)NC(=O)[C@H](CCC(N)=O)NC(=O)[C@H]([C@@H](C)CC)NC(=O)[C@H](Cc2c[nH]c3ccccc23)NC(=O)[C@H](CCCCN)NC1=O [Example 83, Decanoyl-c(Cys-Lys-Trp-Ile-Gln-Cys)-NH2] (Decanoyl-CKWIQC-NH2; disulfide 1-6) | 7.70
CCCCCCCCCCCC(=O)N[C@H]1CSSC[C@@H](C(N)=O)NC(=O)[C@H](CCC(N)=O)NC(=O)[C@H]([C@@H](C)CC)NC(=O)[C@H](Cc2c[nH]c3ccccc23)NC(=O)[C@H](CCCCN)NC1=O [Example 84, Dodecanoyl-c(Cys-Lys-Trp-Ile-Gln-Cys)-NH2] (Lauroyl-CKWIQC-NH2; disulfide 1-6) | 7.82
CC[C@H](C)[C@@H]1NC(=O)[C@@H](NC(=O)[C@@H](N)Cc2c[nH]c3ccccc23)CSSC[C@@H](C(N)=O)NC(=O)[C@H](CCC(N)=O)NC1=O [Example 85, Trp-c(Cys-Ile-Gln-Cys)-NH2] (H-WCIQC-NH2; disulfide 2-5) | 7.30
CC[C@H](C)[C@@H]1NC(=O)[C@H](Cc2c[nH]c3ccccc23)NC(=O)[C@H](CCCCN)NC(=O)CNC(=O)C[C@@H](C(N)=O)NC(=O)[C@H](CCC(N)=O)NC1=O [Example 87, c(Gly-Lys-Trp-Ile-Gln-Asp)-NH2] (GKWIQD-NH2; lactam N-6) | 7.82
CC[C@H](C)[C@@H]1NC(=O)[C@H](Cc2c[nH]c3ccccc23)NC(=O)[C@H](CCCCN)NC(=O)CNC(=O)CC[C@@H](C(N)=O)NC(=O)[C@H](CCC(N)=O)NC1=O [Example 88, c(Gly-Lys-Trp-Ile-Gln-Glu)-NH2] (GKWIQE-NH2; lactam N-6) | 8.05
CC[C@H](C)[C@@H]1NC(=O)[C@H](Cc2c[nH]c3ccccc23)NC(=O)[C@H](CCCCN)NC(=O)CCNC(=O)CC[C@@H](C(N)=O)NC(=O)[C@H](CCC(N)=O)NC1=O [Example 89, c((βAla-Lys-Trp-Ile-Gln-Glu)-NH2] ([βAla]KWIQE-NH2; lactam N-6) | 7.70
CC[C@H](C)[C@@H]1NC(=O)[C@H](Cc2c[nH]c3ccccc23)NC(=O)[C@H](CCCCN)NC(=O)CCCCNC(=O)C[C@@H](C(N)=O)NC(=O)[C@H](CCC(N)=O)NC1=O [Example 90, c(Apn-Lys-Trp-Ile-Gln-Asp)-NH2] ([Ava]KWIQD-NH2; lactam N-6) | 8.15
CC[C@H](C)[C@@H]1NC(=O)[C@H](Cc2c[nH]c3ccccc23)NC(=O)[C@H](CCCCN)NC(=O)CCCCNC(=O)CC[C@@H](C(N)=O)NC(=O)[C@H](CCC(N)=O)NC1=O [Example 91, c(Apn-Lys-Trp-Ile-Gln-Glu)-NH2] ([Ava]KWIQE-NH2; lactam N-6) | 8.05
CC[C@H](C)[C@@H]1NC(=O)[C@H](Cc2c[nH]c3ccccc23)NC(=O)[C@H](CCCCN)NC(=O)CCCCCNC(=O)CC[C@@H](C(N)=O)NC(=O)[C@H](CCC(N)=O)NC1=O [Example 92, c(Ahx-Lys-Trp-Ile-Gln-Glu)-NH2] ([Ahx]KWIQE-NH2; lactam N-6) | 8.30
CC[C@H](C)[C@@H]1NC(=O)[C@H](Cc2c[nH]c3ccccc23)NC(=O)[C@H](CCCCN)NC(=O)CCCCCCNC(=O)C[C@@H](C(N)=O)NC(=O)[C@H](CCC(N)=O)NC1=O [Example 93, c(Aha-Lys-Trp-Ile-Gln-Asp)-NH2] ([Ahp]KWIQD-NH2; lactam N-6) | 8.10
CC[C@H](C)[C@@H]1NC(=O)[C@H](Cc2c[nH]c3ccccc23)NC(=O)[C@H](CCCCN)NC(=O)CCCCCCNC(=O)CC[C@@H](C(N)=O)NC(=O)[C@H](CCC(N)=O)NC1=O [Example 94, c(Aha-Lys-Trp-Ile-Gln-Glu)-NH2] ([Ahp]KWIQE-NH2; lactam N-6) | 8.00
